According to US20180140694A1, “DOSAGE REGIMEN FOR HIV VACCINE” (priority 2015, published 2018):

What was measured:
[1] = Safety and tolerability evaluation in REDUC trial (adverse events); assay type: in vivo, human
Text: The primary endpoint of Part A was safety and tolerability; evaluation as measured by adverse events (AE), adverse reactions (AR), serious adverse events (SAE), serious adverse reactions (SAR), serious unexpected adverse reactions (SUSAR).
The primary endpoint of Part B was firstly, safety and tolerability evaluation as measured by adverse events (AE), adverse reactions (AR), serious adverse events (SAE), serious adverse reactions (SAR), serious unexpected adverse reactions (SUSAR) and dose-limiting toxicity.

[2] = tested on: HIV-1 transcription in CD4+ T cells; test: Cell associated unspliced HIV-1 RNA in CD4+ T cells by droplet digital PCR (REDUC); assay type: in vivo; details: REDUC Part A
Experimental: Unspliced HIV-1 RNA (copies per 10^6 CD4+ T cells): HIV transcription was measured as copies of cell-associated unspliced HIV-1 RNA/106 CD4+ T cells using digital droplet PCR.
HIV transcription was measured as copies of cell-associated unspliced HIV-1 RNA/106 CD4+ T cells using digital droplet PCR. CD4+ T-cells were isolated from PBMCs using Miltenyi Biotec negative bead separation kit (CD4 T cell isolation, #130-096-533) as described with LD separation columns, lysed (Lysis buffer from Qiagen DNA/RNA extraction kit), and stored ad −80° C. until extraction of RNA and DNA (Allprep isolation kit, Qiagen). Reverse transcription, amplification and quantitation of cell-associated unspliced HIV RNA from HIV patients was performed as follows. In summary, HIV unspliced RNA was detected on the BioRad QX100 droplet digital platform using a defined primer/probe set and related to total cell input by quantitation of the IPO8 (Importin 8) and TBP (Tata Binding Protein) gene transcription. […] After cycling droplets were subsequently read automatically by the QX100 droplet reader (BioRad) and the data was analyzed with the QuantaSoft™ analysis software (BioRad). On average, the six HIV replicates generated 80,000-98,000 droplets to be analyzed per time point.

[3] = tested on: Histone H3 acetylation in lymphocytes; test: Histone H3 acetylation in lymphocytes by flow cytometry (REDUC); assay type: in vivo, human; details: REDUC Part A, following each romidepsin administration, 5 mg/m^2
Experimental: Histone H3 acetylation: Measured in lymphocytes using flow cytometry with intracellular cytokine stain on fresh isolated PBMCs.
Histone H3 acetylation was measured in lymphocytes using flow cytometry with intracellular cytokine staining on fresh isolated PBMCs. Freshly isolated PBMC's were fixated, permeabilised and stained with acetylation-specific antibodies, providing the possibility to evaluate epigenetic modifications on Histones (Rigby L, Muscat A, Ashley D, Algar E. Epigenetics 2012; 7(8):875-882). Briefly, PBMCs (1×10^6) were resuspended in 3 ml ice-cold PBS/1% FBS and centrifuged, then vortexed to dissolve pellet and fixative added, 100 μl 2% PFA (ice-cold), vortexed briefly and incubated on ice for 15 min. Cells were then washed in 4 ml PBS, resuspended in 200 μl PBS and stored at 4° C. until staining. Samples were washed with 3 ml FACS buffer and vortexed to dissolve cell pellet prior to adding 100 μl 0.2% Triton X-100, vortexed briefly and incubated for 10 min. at room temperature (RT). Samples were then washed with FACS buffer, 600 μl Block (PBS/10% FBS) was added, sample vortexed to resuspend cell pellet and incubated for 20 min at RT. […] Finally, samples were washed with FACS buffer and resuspended in 80 μl PBS and analyzed by FACS (50 000 events, anti-acetyl histone H3 Median Fluorescence Intensity, MFI, calculated by subtracting background MFI from isotype control).

Plasma HIV-1 RNA [4] = test: Plasma HIV-1 RNA by transcription mediated amplification (NAT screen, PROCLEIX ULTRIO Plus); assay type: in vivo; details: REDUC Part A
Experimental: Plasma HIV-1 RNA detection by NAT screen: Measured by a transcription mediated amplification (TMA)-based methodology, usually referred to as a nucleic acid test (NAT)-screen (PROCLEIX ULTRIO Plus, Genprobe).
Plasma HIV RNA, quantitative viral load, was measured by Cobas® TaqMan® HIV-1 Test, v2.0 (Roche) according the manufacturer's instruction (routine clinical assay). The lower limit of quantification for this assay is 20 copies HIV-1 RNA/mL, but it provides a qualitative assessment below this. Plasma HIV-1 RNA was also measured by a transcription mediated amplification (TMA)-based methodology, usually referred to as a nucleic acid test (NAT)-screen (PROCLEIX ULTRIO Plus, Genprobe), according to manufacturer's instructions.

[5] = tested on: latent HIV-1 reservoir in CD4+ T cells; test: Total HIV-1 DNA per 10^6 CD4+ T cells by droplet digital PCR (REDUC); assay type: in vivo; details: REDUC Part A, romidepsin infusions without preceding vaccination
Text: Total HIV-1 DNA (copies per 10^6 CD4+ T cells): Total HIV DNA quantifies integrated and non-integrated DNA as well as latent and defective virus. There is a strong correlation between total HIV DNA and integrated HIV DNA in patients on cART and therefore cell-associated HIV DNA is likely to be a good surrogate marker of the total number of latently infected cells [Koelsch 2008].
For HIV-1 DNA quantifications, CD4 T cells were isolated using a CD4+ T Cell Isolation Kit Miltenyi biotec, cat no 130-096-533) on LS columns (Miltenyi biotec, cat no 130-042-401). After CD4 T isolation, cells were resuspended in lysis buffer and digested as previously described [Chomont, 2009 Nat Med, 15(8): 893-900]. Cell lysates were used directly for HIV-1 DNA quantifications using the QX100™ Droplet Digital™ PCR system (Bio-Rad) to determine the absolute levels of total HIV-1 DNA per 106 CD4+ T cells [Strain et al 2013 PLOS One].

Plasma HIV-1 RNA [6] = details: REDUC Part A
Experimental: Plasma HIV RNA, quantitative viral load: Measured by Roche VL (routine clinical assay).
Plasma HIV RNA, quantitative viral load, was measured by Cobas® TaqMan® HIV-1 Test, v2.0 (Roche) according the manufacturer's instruction (routine clinical assay). The lower limit of quantification for this assay is 20 copies HIV-1 RNA/mL, but it provides a qualitative assessment below this.

[7] = REDUC Part A, romidepsin 5 mg/m^2, 6 patients

C/C=C1\NC(=O)[C@H]2CSSCC/C=C/[C@H](CC(=O)N[C@H](C(C)C)C(=O)N2)OC(=O)[C@H](C(C)C)NC1=O [romidepsin, (1S,4S,7Z,10S,16E,21R)-7-ethylidene-4,21-bis(1-methylethyl)-2-oxa-12,13-dithia-5,8,20,23-tetraazabicyclo[8.7.6] tricos-16-ene-3,6,9,19,22-pentone]
adverse event grade [1, 7]: most adverse events (AEs) were of grade 1
serious adverse events [1, 7]: No serious adverse events were observed
adverse events considered related to the agent ([1]; REDUC Part B, of 141 in total): 57 adverse events
cell-associated un-spliced HIV RNA as a result of romidepsin infusion [2]: significantly increased
cell-associated un-spliced HIV-1 RNA, fold range from baseline ([2]; after third infusion): 2.4-5.0 fold
Lymphocyte histone H3 acetylation, maximum fold range relative to baseline [3]: 3.7-7.7 fold
Plasma HIV-1 RNA detection by transcription-mediated amplification assay, post-infusion versus baseline (Plasma HIV-1 RNA [4]): detected more frequently
size of the latent reservoir [5]: not affected
extracellular HIV RNA as a result of romidepsin infusion (Plasma HIV-1 RNA [6]): significantly increased
patients with plasma HIV-1 RNA increased to readily quantifiable levels (Plasma HIV-1 RNA [6]; multiple post-infusion time-points): 5 of 6 patients
plasma HIV-1 RNA (Plasma HIV-1 RNA [6]; range following the second infusion, <20 copies/mL at baseline): 46-103 copies/mL
